Series [1] addresses T1, ENL (Homo sapiens, UniProt Q03111).
T1 construct: against AF9(497-568) and ENL (489-559) proteins running different tested concentrations over CM5 chip; MBP (pMSCG9-LIC vector); made in house; host or cells: Escherichia coli BL21 (DE3)
T1 sequence (Q03111 489-559): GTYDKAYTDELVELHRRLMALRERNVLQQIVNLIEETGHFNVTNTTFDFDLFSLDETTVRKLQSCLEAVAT
Nature of the series: Solution competitive SPR assay of peptides, ENL-DOT1L interaction. It is filed as binding. As for the experimental part:
(§1) Solution competitive SPR based assay was performed to determine the IC50 values of DOT1L peptides. […] Response units (RU) were measured at 15 seconds in the dissociation phase and the specific binding was calculated by subtracting the control surface (Fcl) signal from the surfaces with immobilized Mocr-DOT1L. IC50 values were determined by non-linear least squares analysis using Graph Pad Prism 5.0 software.

The target of series [2] is T2, AF9 (Homo sapiens, UniProt P42568).
T2 sequence (P42568 497-568): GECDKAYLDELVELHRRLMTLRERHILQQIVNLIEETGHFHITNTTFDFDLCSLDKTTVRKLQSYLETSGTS
Nature of the series: Optimized competitive FP binding assay (N-Flu-DOT1L / AF9). The arrangement: the recombinant GB1-AF9 protein (residues 497-568); made in house; host or cells: Escherichia coli BL21 (DE3).

Series [3] deals with T2, AF9. Nature of the series: Solution competitive SPR assay of peptides, AF9-DOT1L interaction. It is filed as binding. Also noted: against AF9(497-568) and ENL (489-559) proteins running different tested concentrations over CM5 chip; GB1 (pGB1-LIC vector); made in house; host or cells: Escherichia coli BL21 (DE3). The protocol: as §1
(In general: In SPR one partner is held on a chip, and binding of the other changes the refractive index at the surface.)

Series [4] concerns the target T1, ENL. Nature of the series: SPR competitive binding assay of small molecules, ENL. The note with it: SPR competitive based assay; read-out: ENL IC50 ± SD. An excerpt: (§2) To further validate the binding of the confirmed compounds and identify potential promiscuous inhibitors, several secondary assays have been developed to support hit confirmation and the hit-to-probe optimization process. In order to determine that the compounds bind effectively to the target and disrupt protein-protein interaction, a SPR competitive binding assay was used. This assay uses a platform that differs from the FP-based assay where DOT1L recombinant protein (residues […]) is immobilized on a CM5 chip, allowing for testing of the inhibitors for their ability to disrupt AF9-DOT1L protein-protein interactions.
This class of compounds was also tested for their binding against ENL protein, which is highly homologous with AF9.

The nature of series [5]: Microsomal stability in mouse liver microsome. Type of series: in vitro ADME. The note with it: with NADPH. As for the experimental part:
For optimization of this class of inhibitors besides testing their binding affinity, the physico-chemical properties and microsomal stability will be tested in order to obtain improvement at multiple levels, as necessary for fully optimized compounds. To obtain initial information about the stability of this chemical class of compounds, compounds 42 and 48 have been tested in microsomal stability using mouse liver microsome. […] If their structure is analyzed, the major difference between these two compounds is the R2 substituent, furan vs. thiophen.
(In general: Liver microsomes are a subcellular fraction often used to study metabolism.)

The target of series [6] is T2, AF9. Briefly: SPR competitive binding assay of small molecules, AF9-DOT1L. Also noted: against AF9(497-568) and ENL (489-559) proteins running different tested concentrations over CM5 chip; GB1 (pGB1-LIC vector); made in house; host or cells: Escherichia coli BL21 (DE3). Particulars: SPR competitive based assay; read-out: AF9 IC50 ± SD.
Source text: Several secondary assays have already been developed to support hit confirmation and the hit-to-probe optimization process. The established and optimized SPR-based competitive assay utilizing DOT1L protein (826-1095) immobilized on the CM5 sensor chip was used as a secondary counter screen assay to validate binding of compounds to AF9. […] Both assays gave similar IC50 values.
as §2

The next series concerns the target T3, DOT1L (826-1095) (Homo sapiens, UniProt Q8TEK3).
T3 construct: made in house; host or cells: Escherichia coli BL21 (DE3)
T3 sequence (Q8TEK3 826-1095): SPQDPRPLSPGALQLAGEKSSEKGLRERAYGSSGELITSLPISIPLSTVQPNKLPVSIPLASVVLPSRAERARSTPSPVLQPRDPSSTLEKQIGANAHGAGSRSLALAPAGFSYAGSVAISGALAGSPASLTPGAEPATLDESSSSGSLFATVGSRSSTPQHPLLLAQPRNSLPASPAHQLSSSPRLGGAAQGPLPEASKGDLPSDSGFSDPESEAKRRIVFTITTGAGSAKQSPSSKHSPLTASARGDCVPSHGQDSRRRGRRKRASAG
Nature of the series: SPR binding of ENL fragments to immobilized Mocr-DOT1L (826-1095). As for the experimental part: FIG. 7 pertains to analyzing the C-terminal domain in ENL protein and its binding to DOT1L. A. Alignment of ENL and AF9 C-terminal domain. The predicted α-helices are marked with Helix 1 and Helix 2 and conserved residues are presented in grey. […] The kon, koff and Kd were calculated by simultaneous non-linear regression using 1:1 binding model and BIAevaluation 3.1 software. The experimental data are shown in black while the global fit analyses are shown in grey.
Surface Plasmon Resonance (SPR) binding studies—All SPR based experiments were performed on a BIAcore 2000 (BIAcore, GE Healthcare) instrument. Different tested DOT1L recombinant proteins were immobilized on a CM5 sensor chip by standard EDC/NHS coupling chemistry followed by ethanolamine deactivation of the surfaces. For immobilization of full length Flag-DOT1L protein, anti-Flag antibody (Sigma, Anti-FLAG M2) was immobilized on CM5 chip by the same amine coupling chemistry. HEK293 whole cells lysate with overexpressed Flag-DOT1L at 2.4 μg/l total protein concentration was injected over the Flag antibody surface, followed by injecting of AF9 and ENL in different concentrations. […] Binding parameters, kon, koff and Kd were calculated by simultaneous non-linear regression using BIAEvaluation software.

A further series concerns the target T4, GB1-AF9 (Homo sapiens, UniProt P42568).
T4 construct: the recombinant GB1-AF9 protein (residues 497-568); made in house; host or cells: Escherichia coli BL21 (DE3)
T4 sequence (P42568 497-568): T2 sequence (P42568 497-568)
Nature of the series: FP competitive binding, displacement of Flu-DOT1L from GB1-AF9. Particulars: read-out: IC50, competition with DOT1L 10-mer fluorescein-labeled peptide for AF9. The protocol: AF4 (749-775) protein and several peptides (AF4 14 mer, un-labeled and biotin-labeled DOT1L 10 mer peptide) were tested for their ability to displace the Flu-DOT1L from GB1-AF9 protein. The dose-dependent binding experiments were carried out in 96-well plates with serial dilutions of tested protein or peptides, GB1-AF9 protein (500 nM) and Flu-DOT1L (10 nM) in the same assay buffer and final volume of 125 μL. The polarization values were measured after 3 h incubation. Negative controls containing GB1-AF9 protein and probe (equivalent to 0% inhibition), and positive controls containing only free Flu-DOT1L probe (equivalent to 100% inhibition), were included on each assay plate. IC50 values were determined by nonlinear regression fitting of the competition curves (GraphPad Prism 5.0).

The target in series [7] is T5, AF9 (Homo sapiens, UniProt P42568).
T5 sequence (P42568 1-568): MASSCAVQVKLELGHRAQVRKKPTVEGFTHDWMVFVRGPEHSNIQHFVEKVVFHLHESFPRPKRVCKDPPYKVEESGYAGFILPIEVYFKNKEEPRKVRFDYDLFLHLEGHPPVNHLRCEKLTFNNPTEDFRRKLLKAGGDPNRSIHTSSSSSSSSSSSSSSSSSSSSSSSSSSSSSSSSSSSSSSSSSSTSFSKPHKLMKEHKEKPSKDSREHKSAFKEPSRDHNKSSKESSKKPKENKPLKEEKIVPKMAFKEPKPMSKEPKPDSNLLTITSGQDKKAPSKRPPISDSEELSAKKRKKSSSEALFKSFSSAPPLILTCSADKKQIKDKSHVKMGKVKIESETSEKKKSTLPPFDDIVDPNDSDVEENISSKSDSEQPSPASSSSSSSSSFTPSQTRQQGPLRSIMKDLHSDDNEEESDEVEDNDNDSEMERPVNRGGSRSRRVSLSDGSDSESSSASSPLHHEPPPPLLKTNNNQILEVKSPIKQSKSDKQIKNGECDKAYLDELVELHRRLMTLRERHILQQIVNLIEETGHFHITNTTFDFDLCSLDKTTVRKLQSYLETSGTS
Briefly: Saturation Transfer Difference (STD) NMR. Type of series: binding. The protocol: C) Globally fitted concentration series of 38 (100, 50, 25, 12.5 and 6.25 μM) binding to immobilized AF9 using OctetRed System (see Example 12).
To provide further validation of the hit selection in addition to the biochemical assays Saturation Transfer Difference (STD), NMR spectroscopy was used. NMR spectroscopy has been successfully utilized to detect and characterize the direct binding of small-molecule compounds to large biomolecules. This technique is also allowing characterization of the binding interactions and maps the ligand-protein contacts in the bound state, delineating which chemical moieties of the ligand molecule are key for molecular recognition by the protein (group epitope mapping, FIG. 20A). […] The direct binding of 38 was also confirmed with ThermoFluor biophysical binding assay. ThermoFluor exploits a well-known biophysical phenomenon where small changes in the intrinsic melting temperature of proteins in the presence of ligands are related to the equilibrium-binding constant. Compounds that interact with the native form of the protein will shift the equilibrium to the left, increasing the Tm, the temperature at which half the protein is unfolded. In the presence of compound 38, the Tm of MBP-AF9 protein increases in a dose-dependent manner, giving ΔTm of 1.2 degree in […] (FIG. 20B).

Another series deals with T6, MBP-ENL (489-559) (Homo sapiens, UniProt Q03111).
T6 construct: MBP-ENL (489-559) was dialysed extensively; made in house; host or cells: Escherichia coli BL21 (DE3)
T6 sequence (Q03111 489-559): T1 sequence (Q03111 489-559)
Nature of the series: Isothermal titration calorimetry with MBP-ENL. The note with it: ITC, MBP-tagged ENL, 1:1 stoichiometry; read-out: KD to ENL protein. Type of series: binding. The protocol: Isothermal titration calorimetry—ITC was carried out using a Nano-ITC Micro Calorimeter (TA Instruments) at 20° C. MBP-ENL (489-559) was dialysed extensively against 50 mM Na2HPO4, (pH 7.5) and 100 mM NaCl, and 80 μM was used for titration studies of DOT1L 16-mer and 10-mer peptides, and 110 μM for DOT1L 7-mer titration. Tested peptides dissolved in the same buffer at 400 μM (DOT1L 16-mer and 10-mer) or 500 μM (DOT1L 7-mer) were tested by injecting 2 μl aliquots into the protein sample, at time intervals of […], to ensure that the titration peak returned to the baseline. The ITC data were analyzed by NanoAnalyze software package using a one site-binding model.
(In general: ITC needs no label: the signal is the heat of the interaction.)

Where a SMILES comes first, the peptide text is derived from it. Bounds are passed on as bounds.

With `CC[C@H](C)[C@H](NC(=O)[C@@H]1CCCN1C(=O)[C@H](CC(C)C)NC(C)=O)C(=O)N[C@@H](CO)C(=O)N[C@@H](C)C(=O)N1CCC[C@H]1C(=O)N[C@@H](CC(C)C)C(=O)N[C@@H](CO)C(=O)N[C@H](C(=O)N[C@H](C(N)=O)C(C)C)[C@@H](C)O` [Compound I869A] (Ac-LPISAPLSTV-NH2), the IC50 is more than 200 µM at ENL [1] (CM5 chip with immobilized DOT1L protein, read-out: IC50 ± SD ENL) and more than 200 µM at AF9 [3] (CM5 chip with immobilized DOT1L protein, read-out: IC50 ± SD AF9). In addition, on AF9 [2], the Ki – broadly, a measure of affinity in units of concentration, obtained from inhibition or displacement – was more than 100 µM.
Take `CCc1ccc(S(=O)(=O)N2c3ccccc3NC3=C(C(=O)CCC3)C2c2cccs2)cc1` (centres unmarked) [Compound 48]: the IC50 at ENL [4] was determined as 19.7 ± 4 µM; on AF9 [6], 24.8 ± 1.3 µM. In addition, the “half time in mouse liver microsome” value in [5] was more than 60 min.
For “ENL H2: recombinant fragment of ENL protein corresponding to predicted helix 2 (EETGHFNVTNTTFDFDLFSLDETTVRKLQSCLEAVAT)”, in the series with DOT1L (826-1095), the Kd (usually the equilibrium constant for the complex coming apart) came out at 14.6 µM.
In the case of “recombinant AF4 protein: AF4 recombinant protein (749-775 residues) (LSPLRDTPPPQSLMVKITLDLLSRIPQ)”, the IC50 in the series with GB1-AF9 amounted to 0.56 µM.
For `CCCc1ccc(S(=O)(=O)N2c3ccccc3NC3=C(C(=O)CCC3)C2c2ccco2)cc1` (centres unmarked) [Compound 42], the IC50 on ENL [4] is 58.1 ± 12 µM; on AF9 [6] it was 47.1 ± 2.3 µM. Further, in series [5], the “half time in mouse liver microsome” value is reported as 2 min.
“ENL H1: recombinant fragment of ENL protein corresponding to predicted helix 1 (GTYDKAYTDELVELHRRLMALRERNVLQQIVNLIEETGHFNVTNTTFDFDLFSLDE)” yielded a dissociation constant Kd in the series with DOT1L (826-1095) of 2.8 µM.
In the case of `CC[C@H](C)[C@H](NC(=O)[C@H](CCCCN)NC(=O)[C@@H](NC(=O)[C@H](CCSC)NC(=O)[C@H](CC(C)C)NC(C)=O)C(C)C)C(=O)N[C@H](C(=O)N[C@@H](CC(C)C)C(=O)N[C@@H](CC(=O)O)C(=O)N[C@@H](CC(C)C)C(=O)N[C@@H](CC(C)C)C(=O)N[C@@H](CO)C(=O)N[C@@H](CCCNC(=N)N)C(=O)N[C@H](C(=O)N1CCC[C@H]1C(N)=O)[C@@H](C)CC)[C@@H](C)O` [AF4 14 mer, reference compound] (Ac-LMVKITLDLLSRIP-NH2), the results for the IC50 on ENL [1] (read-out: IC50 against ENL (block PPI DOT1L/ENL)), at GB1-AF9 and on AF9 [3] (read-out: IC50 against AF9 (block PPI DOT1L/AF9)) were 0.43 µM, 0.28 µM and 0.2 µM, respectively.
On to `COc1cccc(Nc2nc(N3CCOCC3)c3c(n2)N(C)NC3)c1` [Compound 36], for which the “STD effects (direct binding to AF9)” value on AF9 [7] is “strong STD effects”.
On to `CC[C@H](C)[C@H](NC(=O)[C@@H]1CCCN1C(=O)[C@H](CC(C)C)NC(C)=O)C(=O)N[C@@H](CO)C(=O)N[C@H](C(=O)N1CCC[C@H]1C(=O)N[C@@H](CC(C)C)C(N)=O)[C@@H](C)CC` [DOT1L 7 mer, Ac-LPISIPL-NH2] (Ac-LPISIPL-NH2), for which the dissociation constant (Kd) on MBP-ENL (489-559) stood at 3.4 µM.
